From patent publication US8377911B2, “Diuretics” (Merck Sharp & Dohme Corp., priority 2009, dated 2013)

Tested on: Male beagle dogs
Assay: canine telemetry protocol, blood pressure reduction efficacy
Format: in vivo
Conditions: telemetered male beagle dogs, 3 mg/kg, oral gavage
Protocol: Compounds of the invention were evaluated for blood pressure reduction efficacy using the following canine telemetry protocol.
Male beagle dogs (approximately 1-3 years old) with a body weight of between 10 and 16 kg were surgically implanted with DSI radiotelemetry devices (model: TL11M2-D70-PCT). Briefly, under an inhalant anesthesia, isoflurane/oxygen mixture (1-3.5%/to effect), the body of the telemetry device was positioned and secured intra-abdominally. Subsequently, the arterial catheter of the telemetry device was passed subcutaneously to the inguinal area and introduced into the femoral artery and advanced to the level of the descending aorta. The catheter was secured with 2-0 silk ligatures. The muscle and underlying fascia was closed over the catheter using absorbable suture and the skin was closed using non-absorbable suture. The animals were allowed a minimum recovery period of 2 weeks between surgery and the evaluation of test compounds.
Compound evaluation consisted of a 3 day paradigm at a 3 mg/kg dose. On the first day, no compounds were administered during a 24 hour period of baseline data collection. Blood pressure and heart rate data were collected continuously for one minute periods at 10 minute intervals. On the days of compound administration half the animals received test article with the other half receiving the vehicle used for compound formulation. All test materials were administered by oral gavage in a volume of 1 mL/kg. Data are expressed either as raw values (mm Hg or beats per minute) or as the change from baseline (average value for about 12 hours in low activity period prior to dosing). Change is SBP (systolic blood pressure) and PP (pulse pressure) over time is shown below: […]

| Structure (SMILES) | ΔPP (pulse pressure), change from baseline, 1-6 h [mm Hg] | ΔSBP (systolic blood pressure), change from baseline, 1-6 h [mm Hg] | ΔPP (pulse pressure), change from baseline, 6-12 h [mm Hg] | ΔSBP (systolic blood pressure), change from baseline, 6-12 h [mm Hg] | ΔPP (pulse pressure), change from baseline, 12-18 h [mm Hg] | ΔSBP (systolic blood pressure), change from baseline, 12-18 h [mm Hg] |
| --- | --- | --- | --- | --- | --- | --- |
| CCCCON=[N+]([O-])N1CCC[C@H]1C(=O)Oc1c(C)ncc2c1CO[C@H]2c1ccc(Cl)cc1 (stereo in doubt) [Example 1, (3S)-3-(4-Chlorophenyl)-6-methyl-1,3-dihydrofuro[3,4-c]pyridin-7-yl 1-[(Z)-butoxy-NNO-azoxy]-L-prolinate] | −14.0 | −15.4 | −6.4 | −6.2 | −3.2 | −0.6 |
| Cc1ncc2c(c1OC(=O)[C@@H]1CCCN1[N+]([O-])=NOCC(C)C)CO[C@H]2c1ccc(Cl)cc1 (stereo in doubt) [Example 5, (3S)-3-(4-Chlorophenyl)-6-methyl-1,3-dihydrofuro[3,4-c]pyridin-7-yl 1-[(Z)-2-methylpropoxy-NNO-azoxy]-L-prolinate] | −3.6 | −2.4 | −1.7 | −2.6 | −2.6 | −2.8 |
| CCCC(C)ON=[N+]([O-])N1CCC[C@H]1C(=O)Oc1c(C)ncc2c1CO[C@H]2c1ccc(Cl)cc1 (stereo in doubt) [Example 9, (3S)-3-(4-Chlorophenyl)-6-methyl-1,3-dihydrofuro[3,4-c]pyridin-7-yl 1-[(Z)-pentan-2-yloxy-NNO-azoxy]-L-prolinate] | −10.6 | −11.8 | −5.2 | −6.6 | −2.5 | 1.0 |
| CC[C@H](C)CON=[N+]([O-])N1CCC[C@H]1C(=O)Oc1c(C)ncc2c1CO[C@H]2c1ccc(Cl)cc1 (stereo in doubt) [Example 10, (3S)-3-(4-Chlorophenyl)-6-methyl-1,3-dihydrofuro[3,4-c]pyridin-7-yl 1-((Z)-{[(2S)-2-methylbutyl]oxy}-NNO-azoxy)-L-prolinate] | 0.6 | −5.3 | 3.4 | −0.9 | 3.8 | −3.1 |
| Cc1ncc2c(c1OC(=O)[C@@H]1CCCN1[N+]([O-])=NOC1CCCCC1)CO[C@H]2c1ccc(Cl)cc1 (stereo in doubt) [Example 11, (3S)-3-(4-Chlorophenyl)-6-methyl-1,3-dihydrofuro[3,4-c]pyridin-7-yl 1-[(Z)-cyclohexyloxy-NNO-azoxy]-L-prolinate] | −6.9 | −9.3 | −2.3 | −3.3 | 0.9 | 3.9 |
| CCCCO/N=[N+](\[O-])N1CCC(C(=O)Oc2c(C)ncc3c2CO[C@H]3c2ccc(Cl)cc2)CC1 [Example 12, (3S)-3-(4-Chlorophenyl)-6-methyl-1,3-dihydrofuro[3,4-c]pyridin-7-yl 1-[(Z)-butoxy-NNO-azoxy]piperidine-4-carboxylate] | −12 | −11 | −5.8 | −5.8 | 0.8 | 3.3 |
